In patent US20110223630A1, “METHOD FOR SCREENING FOR COMPOUNDS THAT INHIBIT NEURODEGENERATION” (priority 2008, published 2011):
Residues, ends and D or L forms follow the SMILES beside them. *: point of attachment. Cbz = O=C(OCc1ccccc1)*; CH2F = FC*

Tests used:
[1] = test system: commissural neurons; test: Dorsal spinal cord (commissural explant) survival assay; type: cell-based, rat
Procedure: To examine functional roles of DR6 in axonal degeneration and programmed cell death of commissural neurons, an RNAi-based dorsal spinal cord survival assay (Kennedy et al., Cell, 78:425-435 (1994); Wang et al., supra, 1999) was conducted (see FIG. 3). E13 rat or E11.5 mouse embryos were placed in L15 medium (Gibco) and siRNAs (IDT) together with green fluorescent protein (“GFP”)-encoding plasmids were injected into the neural tubes. The siRNAs and plasmids were then delivered to dorsal progenitor cells by electroporation. Dorsal spinal cord explants were dissected out, embedded into a 3D-collagen gel matrix, and cultured in Opti-MEM/F12 medium (Invitrogen) with recombinant netrin-1 ([…]) and 5% horse serum (Sigma) at 37° C. in a 5% CO2 environment. Within 16 hours in response to chemo-attractant netrin-1, commissural axons grow out of the explant into the collagen matrix gel (Kennedy et al., supra, 1994). Commissural axons are visualized by GFP fluorescence by observation using an inverted microscope. […]
Control non-targeting, or targeting DR6 siRNA #2, or targeting DR6 siRNA #3 (IDT) together with either wild-type or mis-match DR6 cDNA and GFP-encoding plasmids. […] Within 16 hours in response to chemo-attractant netrin-1 commissural axons grow out of the explant into the collagen matrix gel (Kennedy et al., Cell 78:425-435 (1994). Commissural axons are visualized by GFP fluorescence by observation using inverted microscope. After 48 hours in culture in the absence of trophic factor support derived from the floorplate, commissural neurons undergo programmed cell death and their axons degenerate (Wang et al., Nature, 401:765-769 (1999)) (FIG. 4B). However, the axonal degeneration program can be blocked by introduction of a targeting DR6-specific siRNA #3 (FIG. 4B). […]
A dorsal spinal cord survival assay (as described in Example 2 above) was conducted using anti-DR6 antibodies. Microscopic observation (using green fluorescence channel for GFP) was employed to visualize commissural axons. […]

[2] = patients taking stable doses of Donepezil; changes from baseline; cited from earlier work
[3] = test system: sensory neurons; test: NGF deprivation assay in Campenot Chambers, local sensory axon degeneration (TUJ1 stain); type: cell-based, mouse
Procedure: Materials and methods used to generate the data shown in this figure are as follows. To examine whether ligand is required for DR6 function in sensory axonal degeneration, a compartmented culture analysis of sensory axon growth and degeneration was carried out as follows. A Campenot nerve cell chamber system was used to isolate neuronal processes (axons) from the cell bodies in different compartments (separate fluid environments), analogous to neuronal cell bodies in one location of the nervous system projecting their axons to a distal target in another location. The assay was carried out as originally described by Campenot (Campenot et al., J. Neurosci. 11(4): 1126-39 (1991)) with the following modifications. Briefly, 35-mm tissue culture dishes were coated with PDL/Laminin and scratched with a pin rake (Tyler Research) to generate tracks, as illustrated for example in FIGS. 1 and 4 of Campenot et al., supra. […]
To trigger local axonal degeneration, NGF-containing medium from axonal compartments was substituted with neurobasal medium with an NGF blocking antibody (anti-NGF, Genentech, Inc., 20 ug/ml). Zero hours, 6 hours, or 24 to 48 hours following NGF deprivation, sensory neurons were fixed in 4% PFA for 30 minutes at room temperature and processed for immunofluorescence staining with axonal marker TUJ-1 (Covance, 1:500 dilution) to visualize degenerating axons by fluorescence microscopy (FIG. 11B) (as above described in Example 7). […]
To examine whether ligand is required for DR6 function in axonal degeneration program triggered by NGF withdrawal, 30 μg/ml of hDR6-ECD-Fc immunoadhesin protein (described in Example 3 above) or 30 μg/ml of a control Fc (Genentech, Inc.) was included together with anti-NGF treatment in axonal compartments of Campenot Chambers. Zero to 24 hours after NGF deprivation, axons in Campenot Chambers were fixed with 4% PFA/PBS and visualized by immuno-fluorescence staining with TUJ-1 (1:500, Covance)/secondary antibody conjugated to a fluorescence group Alexa 488 (Molecular Probes, BD) (FIG. 11B). […]

[4] = test system: DR6-AP binding sites on BAX null sensory axons; test: In situ DR6-AP sensory axon binding assay after NGF withdrawal; type: cell-based, mouse; conditions: OM99-2 1 uM; BAX null sensory axons E12.5
Procedure: For the in situ DR6-AP sensory axon binding assay, either wild-type or Bax null sensory explants were cultured in Neurobasal medium/B27 (Invitrogen) as outlined in the Examples 7-8 above, with 50 ng/ml NGF (Roche). Two days post-plating, DRG explants were either left untreated or deprived from NGF as described above in Examples 7-8. Bax inhibitory peptide was added where indicated on FIG. 12B (10 uM, Bax-V5, Tocris). Twelve hours post-NGF deprivation, DRG explants were washed twice with the binding buffer (HBSS, Gibco Cat. No. 14175-095, with 0.2% BSA, 0.1% NaN3, 5 mM CaCl2, 1 mM MgCl2, 20 mM HEPES, pH=7.0). AP binding assay was then carried out by making a 1:1 mixture of DR6-AP conditioned medium and the binding buffer (or control AP conditioned medium and the binding buffer), which was applied directly to DRG explants in 8-well culture slides (Becton, Dickinson and Company) and incubated for 90 minutes at room temperature.
Following the incubation, unbound DR6-AP proteins were washed away by rinsing DRG explants five times with the binding buffer. DRG explants were then fixed with 3.7% formaldehyde diluted in PBS, for 12 minutes at room temperature. The remaining formaldehyde was removed by rinsing DRG explants 3 times with HBS buffer (20 mM HEPES pH=7.0, 150 mM NaCl). Endogenous AP activity was blocked by heat inactivation at 65° C. in HBS buffer for 30 minutes. […]

With “5′-CAAUAGGUCAGGAAGAUGGCU-3′ [DR6-specific siRNA #3]” the “axonal degeneration of commissural neurons” value ([1]; DR6 siRNA electroporated with GFP plasmid, 48 hours in culture without floorplate trophic support) was “blocked”.

In the case of `CC12CC3CC(C)(C1)CC(N)(C3)C2` [Memantine], the “outcome measures SIB, ADCS-ADL19, CIBIC-Plus, NPI, BGP vs placebo” value [2] is given as “exhibiting a benefit over placebo”.

With `CC[C@H](C)[C@H](NC(=O)OCc1ccccc1)C(=O)N[C@@H](CCC(=O)OC)C(=O)N[C@H](C(=O)N[C@@H](CC(=O)OC)C(=O)CF)[C@@H](C)O` [Z-IETD-FMK] (Cbz-IE(OMe)TD(OMe)-CH2F) the “sensory axonal degeneration after anti-NGF” value ([3]; neurons cultured 5 days, then 24 hours, SP 600125 1 uM, Z-IETD-FMK 10 uM, Z-DEVD-FMK 10 uM) was “delayed”.

For (L)-HIV-TAT48-57-PP-JBD20 [L-JNK-I], the “axonal degeneration of commissural neurons” value ([1]; peptide JNK inhibitor at 1 μM) was “partially blocked axonal degeneration”.

For OM99-2, the “sensory axonal degeneration in absence of NGF” value ([3]; BACE inhibitor 1 uM, FIG. 15C) was “blocked” and the “disappearance of DR6-AP binding sites from sensory axons following NGF withdrawal” value [4] was “can block the disappearance of DR6-AP binding sites”.

With “hDR6-ECD-Fc: human DR6 extracellular domain sequence fused with Fc, SEQ ID NO: 4” the commissural axon degeneration ([1]; 48 hours, 30 μg/ml or 10 μg/ml hDR6-ECD-Fc) was “delayed” and the “sensory axonal degeneration induced by NGF withdrawal” value ([3]; 30 μg/ml in axonal compartment with anti-NGF, 0, 6 and 24 hours, vs control Fc) was “delayed sensory axonal degeneration”.
